Results reported in US20060073574A1 (priority 2001, published 2006).

Legend:
[1] = test system: Saccharomyces cerevisiae; test: antifungal activity test against Saccharomyces cerevisiae; conditions: tested against Saccharomyces cerevisiae
[2] = test system: BSE or scrapie agents; conditions: cited from earlier work; for survival times: hamsters and mice infected intracerebrally with BSE or scrapie agents; for delaying the onset of symptoms associated with scrapie and BSE: transmissible spongiform encephalopathies scrapie and BSE
[3] = test system: Leishmania; conditions: cited from earlier work
[4] = amphotericin B: intravenous or intrathecal routes; cited from earlier work
[5] = test system: human immunodeficiency virus (HIV); conditions: cited from earlier work; for inhibition of HIV infection / HIV-1 replication: cultured cells
[6] = compared with amphotericin B; cited from earlier work
[7] = derivative of amphotericin B; cited from earlier work

Row | SMILES | antifungal activity [1] | survival times [2] | delaying the onset of symptoms associated with scrapie and BSE [2] | activity against Leishmania [3] | toxicity [4] | inhibition of HIV infection / HIV-1 replication ([5]; in vitro) | water solubility [6] | activity retained [7] | T-cell activation via the CD3/TcR ([5]; HIV CD4+ cells) | cytotoxicity ([5]; in vitro, all cell types)
1 | C[C@@H]1[C@H](O)[C@@H](C)/C=C/C=C/C=C/C=C/C=C/C=C/C=C/[C@H](O[C@@H]2O[C@@H](C)[C@@H](O)[C@H](N)[C@@H]2O)C[C@@H]2O[C@](O)(C[C@@H](O)C[C@@H](O)CCC[C@@H](O)C[C@@H](O)CC(=O)O[C@H]1C)C[C@H](O)[C@H]2C(=O)O [8-deoxyamphotericin B] | as great as that of amphotericin B |  |  |  |  |  |  |  |  | 
2 | C[C@@H]1[C@H](O)[C@@H](C)/C=C/C=C/C=C/C=C/C=C/C=C/C=C/[C@H](O[C@@H]2O[C@H](C)[C@@H](O)[C@H](N)[C@@H]2O)C[C@@H]2O[C@](O)(C[C@@H](O)C[C@@H](O)[C@H](O)CC[C@@H](O)C[C@@H](O)CC(=O)O[C@H]1C)C[C@H](O)[C@H]2C(=O)O [Amphotericin B] |  | prolonged the survival times | showed activity in delaying the onset of symptoms | active against Leishmania | consistently associated with a number of toxic side-effects | inhibits infection of cultured cells |  |  |  | 
3 | CNC[C@H](O)[C@@H](O)[C@H](O)[C@H](O)CO.C[C@@H]1[C@H](O)[C@@H](C)/C=C/C=C/C=C/C=C/C=C/C=C/C=C/[C@H](O[C@@H]2O[C@H](C)[C@@H](O)[C@H](NCC(=O)[C@@H](O)[C@@H]3OC(c4ccccc4)OC[C@H]3O)[C@@H]2O)C[C@@H]2O[C@](O)(C[C@@H](O)C[C@@H](O)[C@H](O)CC[C@@H](O)C[C@@H](O)CC(=O)O[C@H]1C)C[C@H](O)[C@H]2C(=O)O (stereo partly shown) [MS-8209] |  | prolonged the survival times | showed activity in delaying the onset of symptoms |  |  | inhibit HIV-1 replication in vitro in all cell types | more water soluble | retains activity | restore T-cell activation | without cytotoxicity
